These results are taken from US20230398130A1, “METHODS AND COMPOSITIONS FOR DIFFERENTIATING STEM CELLS” (Massachusetts Institute of Technology, priority 2020, published 2023).

The test system of assay [1] is ISC-enriched organoids. In words: Primary screen, 384-well 2.5-D organoid differentiation (ENR+CD, 6 days): carbachol-induced lysozyme secretion (LYZ.S). The format is cell-based, murine. As to conditions: primary screen; for Z.LYZ.S: standard z score; for SSMD.LYZ.S: strictly standardized mean difference. From the text: High-throughput screening.
For assay [2], the system named is ISC-enriched organoids. Put plainly: Secondary (validation) screen, 384-well 2.5-D, ENR+CD 6 days, n=8 wells, vs ENR+CD+DMSO control: ATP (CTG). The format is cell-based, murine.
Assay [3] relates to ISC-enriched organoids. In words: Lysozyme secretion assay, 3-D organoids in ENR, normalized to ATP. The format is cell-based, murine. As to conditions: 6 hit compounds, 6 days ENR, 10 μM Cch 3 h. The method, then: Lysozyme assay (3D culture). ISC-enriched organoids cultured in 3D Matrigel with ENRCV media were passaged to 48-well plate in 3D Matrigel with ENRCV. At day zero, media were replaced to ENR or ENRCD with or without indicated compounds, and media were replaced every other day. At day six, cells were washed twice with basal media and treated with carbamylcholine chloride (Sigma, C4382) for 3 hours. Media were collected and lysozyme activity was measured by EnzChek Lysozyme Assay Kit (ThermoFisher, E22013).
Lysozyme secretion assay. ISC-enriched organoids in 3D Matrigel culture were passaged to a 48- or 96-well plate and cultured with ENR or ENR+CD media containing DMSO or each drug for 6 days. DMSO- or drug-containing media were changed every other day. […] The fluorescence was measured using excitation/emission of 485/530 nm. […] The solution was replaced to a 96-well white microplate, and luminescent signals were measured by a microplate reader (infinite M200, Tecan). […] For both assays, a polynomial cubic curve was fitted to a set of standard data, and each sample value was calculated on the Microsoft Excel.
Lysozyme secretion assay. […] The fluorescence was measured using excitation/emission of 485/530 nm. […] The solution was replaced to a 96-well white microplate, and luminescent signals were measured by a microplate reader (infinite M200, Tecan). […]

The test system of assay [4] is intestinal organoids. Put plainly: Population RNA-sequencing of organoids. The class given is cell-based, murine. The method, then:
Population RNA-sequencing. Population RNA-seq was performed using a derivative of the Smart-Seq2 protocol for single cells. In brief, organoid media was aspirated and RLT+BME (Qiagen) was added to each well, and plate shaken for 30 minutes to fully lyse. Lysate was aliquoted into 4 identical fractions and stored at −80° C. until reverse transcription. RNA lysate was thawed and cleaned with a 2.2×SPRI ratio using Agencourt RNAClean XP beads (Beckman Coulter, A63987). RNA-seq was performed on a bulk population of […] using Smart-Seq2 chemistry, starting with a 2.2×SPRI ratio cleanup. After oligo-dT priming, Maxima H Minus Reverse Transcriptase (ThermoFisher EP0753) was used to synthesize cDNA with an elongation step at 52° C. before PCR amplification (15 cycles for tissue, 18 cycles for sorted basal cells) using KAPA HiFi PCR Mastermix (Kapa Biosystems KK2602). Sequencing libraries were prepared using the Nextera XT DNA tagmentation kit (Illumina FC-131-1096) with 250 pg input for each sample. Libraries were pooled post-Nextera and cleaned using Agencourt AMPure SPRI beads with successive 0.7× and 0.8× ratio SPRIs and sequenced with an Illumina 75 Cycle NextSeq500/550v2 kit (Illumina FC-404-2005) with loading density at 2.2 pM, with paired end 35 cycle read structure. Samples were sequenced at an average read depth of 8.44 million reads per sample and a total of 96 samples.
Organoid samples were aligned to the Mm10 genome and transcriptome using STAR and RSEM. […] For module scoring with the in vivo Paneth and enteroendocrine cell-defining genes, Applicants used previously published gene sets and computed persample module scores through the Seurat package.

Assay [5] deals with human small intestinal organoids. In words: Single-cell RNA-seq (Seq-Well S^3) of human small intestinal organoids with or without KPT-330. The format is cell-based.
Description: To more completely explore the changes induced by KPT-330 in this human organoid model, and any donor associated effects, Applicants again utilized scRNA-seq via Seq-Well S^3. Applicants performed a comparison between untreated and KPT-330-treated organoids from each donor over a 6-day differentiation, with each sample consisting of single cells from >1,000 organoids. The resulting dataset consists of 2,484 cells. UMI, percent mitochondrial, and detected gene distributions are similar across samples, within acceptable quality bounds (genes >500, UMI<30,000, percent mitochondrial <35) (FIG. 60A).
For both, organoids at each sampling were harvested from 4-6 pooled Matrigel domes, totaling >1,000 organoids per sample. Excess Matrigel was removed per previously described washing protocol, and organoids were resuspended in TrypLE at 37 C for 15 min, with vigorous homogenization through a p200 pipette tip every 5 min. After 15 min, the suspension was passed through a 30 uM cell strainer twice, and counted under brightfield microscopy with trypan blue staining for viable single cells. For human organoid scRNA-seq, antibody-based cell hashing was performed, with all samples pooled following labeling and three washes in FACS buffer to remove excess antibody. Each sample was manually counted to equally weight in cell pools, and then the pool was split and processed as four identical samples.
Antibody hashed arrays were demultiplex with doublets and negative-staining cells removed following default settings of the Seurat function HTODemux.
Applicants performed integrated analysis on a combined dataset of 2,484 cells, with quality metrics for gene number, captured UMIs, and percent mitochondrial genes reported in Supp. […] Dimensional reduction and clustering was performed following normalization in Seurat V3 via SCTransform^71. Applicants performed variable gene identification and dimensionality reduction utilizing the first 18 principal components based on the elbow method to identify 7 clusters using Louvain clustering (Resolution=0.5). […]
Where [6] appears, read: 1st of the 4 dose lines of the treatment (dose not given).
[7] abbreviates: 2nd of the 4 dose lines of the treatment (dose not given).
The mark [8] stands for this setting: 3rd of the 4 dose lines of the treatment (dose not given).
[9] abbreviates: 4th of the 4 dose lines of the treatment (dose not given).

As to `O=C(/C=C\n1cnc(-c2cc(C(F)(F)F)cc(C(F)(F)F)c2)n1)NNc1cnccn1` [KPT-330], the Z.LYZ.S is recorded as 1.677 in assay [1] (setting [6]), −1.821 in assay [1] (setting [7]), −2.523 in assay [1] (setting [8]) and −2.733 in assay [1] (setting [9]). Moreover, the SSMD.LYZ.S is listed as 1.329 in assay [1] (setting [6]), −0.894 in assay [1] (setting [7]), −1.575 in assay [1] (setting [8]) and −1.599 in assay [1] (setting [9]). Besides, the Z.CTG in assay [2] (Dose 0.02 uM) was found to be 1.135; in assay [2] (Dose 0.04 uM), 0.263; in assay [2] (dose 0.08 uM), 1.273. The repSSMD.CTG in assay [2] (Dose 0.02 uM) is reported as 0.959; in assay [2] (Dose 0.04 uM) it was 0.179; in assay [2] (dose 0.08 uM), 0.916. In assay [3], the “Paneth cell-specific activity (LYZ secretion) in conventional ENR culture” value was “enhancing Paneth cell-specific activity”. In assay [4] (ENR+CV, ENR+CD or ENR organoids), the “secretory cell identity (Paneth, goblet, EEC) from bulk transcripts” value was “increase secretory cells (Paneth, goblet, and EEC)”. Also, the “number of differentially expressed genes” value in assay [4] (hits compared, ENR and ENR+CD) is recorded as “the most differentially expressed genes”. The “LYZ expression (scRNA-seq)” value in assay [5] (160 nM KPT-330, 6 days, all donors) is given as “increased LYZ expression”. Moreover, the “cell type composition (scRNA-seq)” value in assay [5] (160 nM KPT-330, 6 days, pan-donor) is “decreases in cycling stem and progenitor populations, increases in quiescent progenitors and enterocytes”. Also, the “XPO1 expression (scRNA-seq)” value in assay [5] (following KPT-330 treatment) is listed as “compensatory increase in XPO1 expression”.
